These results are taken from patent publication US11339157B1, “4H-pyrrolo[3,2-c]pyridin-4-one derivatives” (Bayer Aktiengesellschaft, priority 2017, dated 2022).

The target of assay [1] is EGFR ins SVD (insertion of SVD between D770 and N771) (Homo sapiens, UniProt P00533, INS767SVD). The assay is described as follows: Exon 20-Mutant-EGFR(D770_N771insSVD) kinase assay (TR-FRET). In kind it is biochemical. Background: In TR-FRET formats the signal depends on donor and acceptor labels being close together.
Chain of EGFR ins SVD (insertion of SVD between D770 and N771) (P00533 with tags, fused parts or gaps INS767SVD limits assumed): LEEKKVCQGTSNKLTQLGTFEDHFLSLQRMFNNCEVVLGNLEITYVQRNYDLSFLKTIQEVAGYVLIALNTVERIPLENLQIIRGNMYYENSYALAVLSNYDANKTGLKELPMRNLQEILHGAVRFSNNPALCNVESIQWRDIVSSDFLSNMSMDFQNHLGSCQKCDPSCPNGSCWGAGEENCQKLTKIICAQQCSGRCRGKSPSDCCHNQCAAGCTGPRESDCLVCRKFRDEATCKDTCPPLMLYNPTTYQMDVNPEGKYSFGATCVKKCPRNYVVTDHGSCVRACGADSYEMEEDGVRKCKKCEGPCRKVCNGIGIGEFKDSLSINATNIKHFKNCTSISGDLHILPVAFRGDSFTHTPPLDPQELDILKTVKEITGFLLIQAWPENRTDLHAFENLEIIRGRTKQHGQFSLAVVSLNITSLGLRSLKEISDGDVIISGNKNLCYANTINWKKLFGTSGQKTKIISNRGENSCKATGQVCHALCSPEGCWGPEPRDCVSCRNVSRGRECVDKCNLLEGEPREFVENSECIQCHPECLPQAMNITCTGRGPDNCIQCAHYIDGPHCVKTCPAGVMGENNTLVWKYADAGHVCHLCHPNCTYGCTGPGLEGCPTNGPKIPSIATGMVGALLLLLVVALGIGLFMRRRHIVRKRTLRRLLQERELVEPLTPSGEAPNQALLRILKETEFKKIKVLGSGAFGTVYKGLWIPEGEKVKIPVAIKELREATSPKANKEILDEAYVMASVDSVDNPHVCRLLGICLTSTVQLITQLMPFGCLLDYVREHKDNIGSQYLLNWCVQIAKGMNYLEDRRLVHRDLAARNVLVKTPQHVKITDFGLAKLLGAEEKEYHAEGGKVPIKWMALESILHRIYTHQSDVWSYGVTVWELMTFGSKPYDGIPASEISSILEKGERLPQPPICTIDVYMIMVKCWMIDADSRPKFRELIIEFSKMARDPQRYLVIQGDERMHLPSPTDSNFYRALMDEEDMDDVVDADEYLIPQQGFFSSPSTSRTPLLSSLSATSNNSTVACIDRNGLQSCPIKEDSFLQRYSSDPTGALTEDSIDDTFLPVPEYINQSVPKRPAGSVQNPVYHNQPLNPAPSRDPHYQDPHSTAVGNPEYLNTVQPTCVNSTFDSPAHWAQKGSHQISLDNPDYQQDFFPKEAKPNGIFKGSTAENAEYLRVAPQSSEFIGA
Method: Exon 20-Mutant-EGFR(D770_N771insSVD) Kinase Assay
Inhibitory activity of compounds of the present invention against an Epidermal Growth Factor Receptor (EGFR) with an insertion of the amino acids sequence SVD between D770 and N771 was quantified employing the TR-FRET based kinase activity assay as described in the following paragraphs.
For the assay 50 nl of a 100-fold concentrated solution of the test compound in DMSO was pipetted into either a black low volume 384 well microtiter plate or a black 1536 well microtiter plate (both Greiner Bio-One, Frickenhausen, Germany), 2 μl of a solution of EGFR in aqueous assay buffer [50 mM Hepes pH 7.0, 10 mM MgCl2, 1 mM dithiothreitol, 0.5 mM EGTA, 0.3 mM activated sodium ortho-vanadate, 0.005% (w/v) bovine serum albumin, 0.005% (v/v) Tween-20] were added and the mixture was incubated for 15 min at 22° C. to allow pre binding of the test compounds to the enzyme before the start of the kinase reaction. […] The concentration of EGFR was adjusted depending of the activity of the enzyme lot and was chosen appropriate to have the assay in the linear range, typical concentration was 15 pg/μl. The reaction was stopped by the addition of 3 μl of a solution of HTRF detection reagents (83.3 nM streptavidine-XL665 [Cisbio Bioassays, Codolet, France] and 1.67 nM PT66-Tb-Cryptate, a terbium-cryptate labelled anti-phospho-tyrosine antibody from Cisbio Bioassays [instead of the PT66 Tb cryptate PT66 Eu Chelate from Perkin Elmer can also be used]) in an aqueous EDTA-solution (133.3 mM EDTA, 0.2% (w/v) bovine serum albumin in 50 mM HEPES pH 7.5).
(§2) The resulting mixture was incubated 1 h at 22° C. to allow the binding of the biotinylated phosphorylated peptide to the streptavidine-XL665 and the PT66-Tb-Cryptate. Subsequently the amount of phosphorylated substrate was evaluated by measurement of the resonance energy transfer from the PT66-Tb-Cryptate to the streptavidine-XL665.
The target in assay [2] is EGFR ins ASV (insertion of ASV between V769 and D770). The assay is described as follows: Exon 20-Mutant-EGFR(V769_D770insASV) kinase assay (TR-FRET). In kind it is biochemical, human. The following applies: 2 mM ATP.
Method: Exon 20-Mutant-EGFR(V769_D770insASV) Kinase Assay
Inhibitory activity of compounds of the present invention against an Epidermal Growth Factor Receptor (EGFR) with an insertion of the amino acids sequence ASV between V769 and D770 was quantified employing the TR-FRET based kinase activity assay as described in the following paragraphs.
For the assay 50 nl of a 100-fold concentrated solution of the test compound in DMSO was pipetted into either a black low volume 384well microtiter plate or a black 1536 well microtiter plate (both Greiner Bio-One, Frickenhausen, Germany), 2 μl of a solution of EGFR in aqueous assay buffer [50 mM Hepes pH 7.0, 10 mM MgCl2, 1 mM dithiothreitol, 0.5 mM EGTA, 0.3 mM activated sodium ortho-vanadate, 0.005% (w/v) bovine serum albumin, 0.005% (v/v) Tween-20] were added and the mixture was incubated for 15 min at 22° C. to allow pre binding of the test compounds to the enzyme before the start of the kinase reaction. […] The concentration of EGFR was adjusted depending of the activity of the enzyme lot and was chosen appropriate to have the assay in the linear range, typical concentration was 2.5 pg/μl. The reaction was stopped by the addition of 3 μl of a solution of HTRF detection reagents (83.3 nM streptavidine-XL665 [Cisbio Bioassays, Codolet, France] and 1.67 nM PT66-Tb-Cryptate, an terbium-cryptate labelled anti-phospho-tyrosine antibody from Cisbio Bioassays [instead of the PT66 Tb cryptate PT66 Eu Chelate from Perkin Elmer can also be used]) in an aqueous EDTA-solution (133.3 mM EDTA, 0.2% (w/v) bovine serum albumin in 50 mM HEPES pH 7.5).
as §2
Assay [3] addresses Bub1 (Homo sapiens (Human), UniProt O43683). Nature of the assay: Bub1 kinase assay (TR-FRET, 10 μM ATP). Format: biochemical. The settings on record: mean, read-out: Bub1 kinase assay IC50 [mol/l] (mean). The text has this: Bub1-inhibitory activities of compounds described in the present invention were quantified using a time-resolved fluorescence energy transfer (TR-FRET) kinase assay which measures phosphorylation of the synthetic peptide Biotin-Ahx-[…]—SEQ ID NO: 5 (C-terminus in amide form), purchased from e.g. Biosyntan (Berlin, Germany) by the (recombinant) catalytic domain of human Bub1 (amino acids 704-1085), expressed in Hi5 insect cells with an N-terminal His6-tag (SEQ ID NO: 9) and purified by affinity-(Ni-NTA) and size exclusion chromatography.
In a typical assay 11 different concentrations of each compound (0.1 nM, 0.33 nM, 1.1 nM, 3.8 nM, 13 nM, 44 nM, 0.15 μM, 0.51 μM, 1.7 μM, 5.9 μM and 20 μM) were tested in duplicate within the same microtiter plate. To this end, 100-fold concentrated compound solutions (in DMSO) were previously prepared by serial dilution (1:3.4) of 2 mM stocks in a clear low volume 384-well source microtiter plate (Greiner Bio-One, Frickenhausen, Germany), from which 50 nl of compounds were transferred into a black low volume test microtiter plate from the same supplier. […] The resulting mixture (5 μl final volume) was incubated at 22° C. during 60 min., and the reaction was stopped by the addition of 5 μl of an aqueous EDTA-solution (50 mM EDTA, in 100 mM HEPES pH 7.5 and 0.2% (w/v) bovine serum albumin) which also contained the TR-FRET detection reagents (0.2 μM streptavidin-XL665 [Cisbio Bioassays, Codolet, France] and 1 nM anti-phosho-Serine antibody [Merck Millipore, cat. #35-002] and 0.4 nM LANCE EU-W1024 labeled anti-mouse IgG antibody [Perkin-Elmer, product no. AD0077, alternatively a Terbium-cryptate-labeled anti-mouse IgG antibody from Cisbio Bioassays can be used]). The stopped reaction mixture was further incubated 1 h at 22° C. in order to allow the formation of complexes between peptides and detection reagents. Subsequently, the amount of product was evaluated by measurement of the resonance energy transfer from the Eu-chelate-antibody complex recognizing the Phosphoserine residue to the streptavidin-XL665 bound to the biotin moiety of the peptide. To this end, the fluorescence emissions at 620 nm and 665 nm after excitation at 330-350 nm were measured in a TR-FRET plate reader, e.g. a Rubystar or Pherastar (both from BMG Labtechnologies, Offenburg, Germany) or a Viewlux (Perkin-Elmer) and the ratio of the emissions (665 nm/[…]) was taken as indicator for the amount of phosphorylated substrate. The data were normalised using two sets of control wells for high-(=enzyme reaction without inhibitor=0%=Minimum inhibition) and low-(=all assay components without enzyme=100%=Maximum inhibition) Bub1 activity. IC50 values were calculated by fitting the normalized inhibition data to a 4-parameter logistic equation (Minimum, Maximum, IC50, Hill; Y=Max+(Min−Max)/(1+(X/IC50)Hill)).

In assay [4] the test system is Ba/F3-EGFR-insSVD cells. The assay is described as follows: Proliferation assay in BA/F3 (ins SVD) cells (Cell Titer-Glo). In kind it is cell-based. The method, boiled down:
(§1)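 Ba/F3 cells stably expressing retrovirally transduced EGFR-WT or EGFR-insSVD; WT cells plated with 10 ng/mL EGF, insSVD cells without EGF. Compound exposure 48 h at 37° C; viability read by CellTiter-Glo luminescence.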

Assay [5] deals with Ba/F3-EGFR-WT cells. Nature of the assay: Proliferation assay in BA/F3 (wild type) cells (Cell Titer-Glo). Format: cell-based. Put shortly: as §1
(In general: ATP-based viability assays read luminescence as a measure of living cells.)

Setting [6] is: 2 mM ATP, mean, read-out: EGFR ins SVD IC50 [mol/l] (mean).
Setting [7] is: Table 9, read-out: mutEGFR (D770_N771insSVD) kinase assay IC50.
Where [8] appears, read: Mus musculus, BaF3, 48 h, Table 10, plated without EGF.
[9] abbreviates: Mus musculus, BaF3, 48 h, Table 10, plated with 10 ng/mL EGF.

Molecules are shown by their SMILES. Several values for one entry are separate records, joined by “and”; a condition that tells them apart may be missing. Equal entries are not always repeated. Where two headings read alike, the source gives them in different places. Where only a bound is given, the exact number is not on record here.

Chain of Bub1 (O43683 704-1085): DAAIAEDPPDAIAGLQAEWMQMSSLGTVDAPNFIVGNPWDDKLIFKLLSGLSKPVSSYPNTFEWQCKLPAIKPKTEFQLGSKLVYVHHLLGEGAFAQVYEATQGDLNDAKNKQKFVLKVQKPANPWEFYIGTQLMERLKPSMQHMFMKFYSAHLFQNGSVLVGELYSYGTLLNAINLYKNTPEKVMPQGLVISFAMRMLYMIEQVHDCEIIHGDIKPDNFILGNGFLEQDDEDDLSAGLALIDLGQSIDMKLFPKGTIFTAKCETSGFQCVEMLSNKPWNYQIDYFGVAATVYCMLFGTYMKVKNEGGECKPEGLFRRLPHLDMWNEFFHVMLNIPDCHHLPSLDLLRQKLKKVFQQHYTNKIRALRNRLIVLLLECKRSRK

Turning to `O=C1NCCc2[nH]c(-c3ccncc3OCc3ccccc3)c(Nc3cccc(F)c3)c21` [Example 3, 2-[3-(benzyloxy)pyridin-4-yl]-3-[(3-fluorophenyl)amino]-1,5,6,7-tetrahydro-4H-pyrrolo[3,2-c]pyridin-4-one], the IC50 in assay [1] (setting [6]) was found to be 0.28 nM; in assay [1] (setting [7]), 0.28 nM; in assay [3], 47.6 nM; in assay [4] (Mus musculus, BaF3, Table 10, plated without EGF, 48 h), 587 nM; in assay [5] (Mus musculus, BaF3, Table 10, plated with 10 ng/mL EGF, 48 h), 2160 nM. In addition, the “EGFR ins ASV IC50 [mol] (mean)” value in assay [2] stood at 6.85e-09 mol.

`CC(C)(O)COc1cnccc1-c1[nH]c2c(c1Nc1cccc(F)c1)C(=O)NCC2` [Example 4, 3-[(3-fluorophenyl)amino]-2-[3-(2-hydroxy-2-methylpropoxy)pyridin-4-yl]-1,5,6,7-tetrahydro-4H-pyrrolo[3,2-c]pyridin-4-one]: the IC50 is under 0.072 nM in assay [1] (setting [6]); under 0.0725 nM in assay [1] (setting [7]); 12.5 nM in assay [3]; 329 nM in assay [4] (setting [8]); 1610 nM in assay [5] (setting [9]). Further, the “EGFR ins ASV IC50 [mol] (mean)” value in assay [2] is 1.31e-10 mol.

With `CN(C)CCOc1cnccc1-c1[nH]c2c(c1Nc1cccc(F)c1)C(=O)NCC2` [Example 5, 2-{3-[2-(dimethylamino)ethoxy]pyridin-4-yl}-3-[(3-fluorophenyl)amino]-1,5,6,7-tetrahydro-4H-pyrrolo[3,2-c]pyridin-4-one], the IC50 came out at 1.56 nM in assay [1] (setting [6]), 1.56 nM in assay [1] (setting [7]), 32.4 nM in assay [3] and 567 nM in assay [4] (setting [8]). Besides, in assay [2], the “EGFR ins ASV IC50 [mol] (mean)” value was 4.31e-09 mol.

As for `COC(C)(C)COc1cnccc1-c1[nH]c2c(c1Nc1cccc(F)c1)C(=O)NCC2` [Example 6, 3-[(3-fluorophenyl)amino]-2-[3-(2-methoxy-2-methylpropoxy)pyridin-4-yl]-1,5,6,7-tetrahydro-4H-pyrrolo[3,2-c]pyridin-4-one], the IC50 in assay [1] (setting [6]) is under 0.072 nM; in assay [1] (setting [7]) it was < 0.0725 nM (2×) and 0.104 nM and 0.0949 nM; in assay [3] it was 26.9 nM; in assay [4] (setting [8]) it was 63.3 nM; in assay [5] (setting [9]), 394 nM. For the same compound, the “EGFR ins ASV IC50 [mol] (mean)” value in assay [2] came to 2.12e-10 mol.

Consider `COCCOc1cnccc1-c1[nH]c2c(c1Nc1cc(F)cc(F)c1)C(=O)NCC2` [Example 9, 3-[(3,5-difluorophenyl)amino]-2-[3-(2-methoxyethoxy)pyridin-4-yl]-1,5,6,7-tetrahydro-4H-pyrrolo[3,2-c]pyridin-4-one], for which the IC50 in assay [1] (setting [6]) was under 0.072 nM; in assay [1] (setting [7]) it was 0.36 nM and 0.388 nM and 0.0776 nM and < 0.0725 nM and 0.1 nM and 0.0962 nM and 0.196 nM and 0.206 nM; in assay [3], 27.2 nM; in assay [4] (setting [8]), 121 nM; in assay [5] (setting [9]) it was 376 nM. For the same compound, the “EGFR ins ASV IC50 [mol] (mean)” value in assay [2] worked out at 6.15e-09 mol.

As to `COCCOc1cnccc1-c1[nH]c2c(c1Nc1ccccc1OC(F)F)C(=O)NCC2` [Example 11, 3-{[2-(difluoromethoxy)phenyl]amino}-2-[3-(2-methoxyethoxy)pyridin-4-yl]-1,5,6,7-tetrahydro-4H-pyrrolo[3,2-c]pyridin-4-one], the IC50 in assay [1] (setting [6]) was 0.22 nM; in assay [1] (setting [7]), 0.292 nM; in assay [3], 192 nM; in assay [4] (setting [8]), 357 nM; in assay [5] (setting [9]), 1780 nM. In assay [2], the “EGFR ins ASV IC50 [mol] (mean)” value is 4.25e-09 mol.

Consider `COCCOc1cnccc1-c1[nH]c2c(c1Nc1ccccc1OC)C(=O)NCC2` [Example 13, 2-[3-(2-methoxyethoxy)pyridin-4-yl]-3-[(2-methoxyphenyl)amino]-1,5,6,7-tetrahydro-4H-pyrrolo[3,2-c]pyridin-4-one], for which the IC50 was found to be 4.41 nM in assay [1] (setting [6]); 4.41 nM in assay [1] (setting [7]); 350 nM in assay [3]; 811 nM in assay [4] (setting [8]); 4010 nM in assay [5] (setting [9]). For the same compound, in assay [2], the “EGFR ins ASV IC50 [mol] (mean)” value was 3.89e-08 mol.

Consider `COCCOc1cnccc1-c1[nH]c2c(c1Nc1ccccc1CC(F)F)C(=O)NCC2` [Example 15, 3-{[2-(2,2-difluoroethyl)phenyl]amino}-2-[3-(2-methoxyethoxy)pyridin-4-yl]-1,5,6,7-tetrahydro-4H-pyrrolo[3,2-c]pyridin-4-one], for which the IC50 in assay [1] (setting [6]) came out at 0.489 nM; in assay [1] (setting [7]) it was 0.489 nM; in assay [3], 187 nM; in assay [4] (setting [8]), 409 nM; in assay [5] (setting [9]) it was 2870 nM. Moreover, the “EGFR ins ASV IC50 [mol] (mean)” value in assay [2] was 1.34e-09 mol.

For the compound `COc1c(F)cccc1Nc1c(-c2ccncc2OCC(C)(C)OC)[nH]c2c1C(=O)NCC2` [Example 17, 3-[(3-fluoro-2-methoxyphenyl)amino]-2-[3-(2-methoxy-2-methylpropoxy)pyridin-4-yl]-1,5,6,7-tetrahydro-4H-pyrrolo[3,2-c]pyridin-4-one], the IC50 in assay [1] (setting [6]) was determined as 0.113 nM; in assay [1] (setting [7]), 0.113 nM; in assay [3], 55.1 nM; in assay [4] (setting [8]), 11.9 nM; in assay [5] (setting [9]), 397 nM. Moreover, the “EGFR ins ASV IC50 [mol] (mean)” value in assay [2] was found to be 1.77e-10 mol.

With `COC(C)(C)COc1cnccc1-c1[nH]c2c(c1Nc1cccc(F)c1OC(F)F)C(=O)NCC2` [Example 19, 3-{[2-(difluoromethoxy)-3-fluorophenyl]amino}-2-[3-(2-methoxy-2-methylpropoxy)pyridin-4-yl]-1,5,6,7-tetrahydro-4H-pyrrolo[3,2-c]pyridin-4-one], the IC50 turned out to be 0.155 nM in assay [1] (setting [6]); 0.148 nM in assay [1] (setting [7]); 149 nM in assay [3]; 40.1 nM in assay [4] (Table 10, plated without EGF, 48 h); 870 nM in assay [5] (Table 10, plated with 10 ng/mL EGF, 48 h). Besides, in assay [2], the “EGFR ins ASV IC50 [mol] (mean)” value stood at 2.39e-10 mol.

Consider `COCCOc1cnccc1-c1[nH]c2c(c1Nc1cccc(F)c1C)C(=O)NCC2` [Example 20, 3-[(3-fluoro-2-methylphenyl)amino]-2-[3-(2-methoxyethoxy)pyridin-4-yl]-1,5,6,7-tetrahydro-4H-pyrrolo[3,2-c]pyridin-4-one], for which the IC50 in assay [1] (setting [6]) amounted to 0.149 nM; in assay [1] (setting [7]), 0.149 nM; in assay [3], 67.4 nM; in assay [4] (setting [8]), 48.3 nM; in assay [5] (setting [9]), 625 nM. For the same compound, in assay [2], the “EGFR ins ASV IC50 [mol] (mean)” value stood at 3.22e-10 mol.

Regarding `COC(C)(C)COc1cnccc1-c1[nH]c2c(c1Nc1cccc(F)c1CC(F)F)C(=O)NCC2` [Example 23, 3-{[2-(2,2-difluoroethyl)-3-fluorophenyl]amino}-2-[3-(2-methoxy-2-methylpropoxy)pyridin-4-yl]-1,5,6,7-tetrahydro-4H-pyrrolo[3,2-c]pyridin-4-one], the IC50 in assay [1] (setting [6]) worked out at 0.259 nM; in assay [1] (setting [7]), 0.191 nM; in assay [3], 67.3 nM; in assay [4] (setting [8]) it was 33 nM; in assay [5] (setting [9]), 388 nM. In assay [2], the “EGFR ins ASV IC50 [mol] (mean)” value worked out at 3.42e-10 mol.

`CCOc1c(F)cccc1Nc1c(-c2ccncc2OCC(C)(C)OC)[nH]c2c1C(=O)NCC2` [Example 26, 3-[(2-ethoxy-3-fluorophenyl)amino]-2-[3-(2-methoxy-2-methylpropoxy)pyridin-4-yl]-1,5,6,7-tetrahydro-4H-pyrrolo[3,2-c]pyridin-4-one]: the IC50 was 0.268 nM in assay [1] (setting [6]); 0.415 nM in assay [1] (setting [7]); 85.8 nM in assay [3]; 618 nM in assay [4] (setting [8]); 2000 nM in assay [5] (setting [9]). For the same compound, the “EGFR ins ASV IC50 [mol] (mean)” value in assay [2] came out at 9.43e-10 mol.
